The source made the active and inactive calls. The calls are words filed in the database; no cut-off is given here.
Tests used:
MCF7 [1] = assay: Antiproliferative activity against human MCF7 cells assessed as inhibition of cell growth incubated for 72 hrs by MTT assay; assay type: functional, cell-based; details: MCF7, 72 h
MDA-MB-231 [2] = assay: Antiproliferative activity against human MDA-MB-231 cells assessed as inhibition of cell growth incubated for 72 hrs by MTT assay; assay type: functional, cell-based; details: MDA-MB-231, 72 h
Cytochrome P450 7A1 [3] = target: T1, Cytochrome P450 7A1 (Homo sapiens, UniProt P22680); assay: Binding affinity to recombinant human CYP7A1 assessed as substrate-type binding by measuring dissociation constant by spectrophotometric titration method; assay type: ADME
T1 sequence (P22680 whole entry): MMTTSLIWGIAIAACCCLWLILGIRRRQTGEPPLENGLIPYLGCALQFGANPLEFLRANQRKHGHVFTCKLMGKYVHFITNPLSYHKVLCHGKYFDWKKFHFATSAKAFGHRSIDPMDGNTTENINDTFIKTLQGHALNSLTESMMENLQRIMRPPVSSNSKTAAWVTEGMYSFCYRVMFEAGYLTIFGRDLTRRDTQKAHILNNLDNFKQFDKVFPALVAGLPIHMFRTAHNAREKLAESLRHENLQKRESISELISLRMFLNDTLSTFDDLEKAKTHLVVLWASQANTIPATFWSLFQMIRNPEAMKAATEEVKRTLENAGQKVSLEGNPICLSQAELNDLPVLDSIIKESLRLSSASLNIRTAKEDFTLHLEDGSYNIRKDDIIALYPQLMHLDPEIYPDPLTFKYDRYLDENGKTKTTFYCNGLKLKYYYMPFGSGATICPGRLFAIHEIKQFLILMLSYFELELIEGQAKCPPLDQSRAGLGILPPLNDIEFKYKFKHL

Cytochrome P450 7B1 [4] = target: T2, Cytochrome P450 7B1 (Homo sapiens, UniProt O75881); assay: Binding affinity to recombinant human CYP7B1 assessed as substrate-type binding by measuring dissociation constant by spectrophotometric titration method; assay type: ADME
T2 sequence (O75881 whole entry): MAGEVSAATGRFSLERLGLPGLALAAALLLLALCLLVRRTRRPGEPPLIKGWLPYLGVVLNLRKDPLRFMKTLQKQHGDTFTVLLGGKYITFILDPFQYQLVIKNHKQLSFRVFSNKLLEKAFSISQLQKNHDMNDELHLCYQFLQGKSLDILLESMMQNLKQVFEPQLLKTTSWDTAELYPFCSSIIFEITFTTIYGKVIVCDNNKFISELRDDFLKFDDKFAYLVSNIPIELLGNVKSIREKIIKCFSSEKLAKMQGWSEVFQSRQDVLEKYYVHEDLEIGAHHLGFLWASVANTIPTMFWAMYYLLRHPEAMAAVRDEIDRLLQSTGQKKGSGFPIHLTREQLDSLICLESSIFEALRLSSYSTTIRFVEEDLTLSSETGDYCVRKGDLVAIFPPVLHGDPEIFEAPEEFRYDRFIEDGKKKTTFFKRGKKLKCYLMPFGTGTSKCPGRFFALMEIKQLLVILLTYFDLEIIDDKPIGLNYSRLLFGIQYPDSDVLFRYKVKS

MCF7 [5] = assay: Anti-estrogenic activity in human MCF7 cells assessed as reduction in ERalpha protein expression at 1.7 to 15 uM measured after 48 hrs by immunoblot analysis; assay type: functional, cell-based; details: dose 1.7-15 µM
MCF7 [6] = assay: Anti-estrogenic activity in human MCF7 cells assessed as reduction in GREB1 protein expression at 1.7 to 15 uM measured after 48 hrs by immunoblot analysis; assay type: functional, cell-based; details: dose 1.7-15 µM
MCF7 [7] = assay: Anti-estrogenic activity in human MCF7 cells transfected with luciferase gene under control of estrogen response elements cotransfected with beta-galactosidase assessed as reduction in 17beta-estradiol induced ERalpha protein expression by measuring reduction in luciferase activity measured after 24 hrs; assay type: functional, cell-based; details: dose 1.7-20 µM
MCF7 [8] = assay: Effect on E-cadherin protein expression in human MCF7 cells at 1.7 to 15 uM measured after 48 hrs by immunoblot analysis; assay type: functional, cell-based; details: dose 1.7-15 µM
MCF7 [9] = assay: Effect on activated AKT protein level in human MCF7 cells at 1.7 to 15 uM measured after 48 hrs by immunoblot analysis; assay type: functional, cell-based; details: dose 1.7-15 µM
MCF7 [10] = assay: Downregulation of cyclin D1 protein expression in human MCF7 cells at 1.7 to 15 uM measured after 48 hrs by immunoblot analysis; assay type: functional, cell-based; details: dose 1.7-15 µM
MCF7 [11] = assay: Downregulation of CDK4 protein expression in human MCF7 cells at 1.7 to 15 uM measured after 48 hrs by immunoblot analysis; assay type: functional, cell-based; details: dose 1.7-15 µM
MCF7 [12] = assay: Induction of cell death in human MCF7 cells assessed as accumulation of cleaved PARP level at 1.7 to 15 uM measured after 48 hrs by immunoblot analysis; assay type: functional, cell-based; details: dose 1.7-15 µM
MCF7 [13] = assay: Induction of cell death in human MCF7 cells assessed as reduction in Bcl-2 protein expression measured after 48 hrs by immunoblot analysis; assay type: functional, cell-based; details: dose 1.7-15 µM
Cytochrome P450 7A1 [14] = target: T1, Cytochrome P450 7A1; assay: Binding affinity to recombinant human CYP7A1 by spectrophotometric titration method; assay type: ADME; details: recombinant enzyme
Cytochrome P450 7B1 [15] = target: T2, Cytochrome P450 7B1; assay: Binding affinity to recombinant human CYP7B1 by spectrophotometric titration method; assay type: ADME; details: recombinant enzyme
[16] = target: T3, Steroid 17-alpha-hydroxylase/17,20 lyase (Homo sapiens, UniProt P05093); assay: Binding affinity to recombinant human CYP17A1 by spectrophotometric titration method; assay type: ADME; details: recombinant enzyme
T3 sequence (P05093 whole entry): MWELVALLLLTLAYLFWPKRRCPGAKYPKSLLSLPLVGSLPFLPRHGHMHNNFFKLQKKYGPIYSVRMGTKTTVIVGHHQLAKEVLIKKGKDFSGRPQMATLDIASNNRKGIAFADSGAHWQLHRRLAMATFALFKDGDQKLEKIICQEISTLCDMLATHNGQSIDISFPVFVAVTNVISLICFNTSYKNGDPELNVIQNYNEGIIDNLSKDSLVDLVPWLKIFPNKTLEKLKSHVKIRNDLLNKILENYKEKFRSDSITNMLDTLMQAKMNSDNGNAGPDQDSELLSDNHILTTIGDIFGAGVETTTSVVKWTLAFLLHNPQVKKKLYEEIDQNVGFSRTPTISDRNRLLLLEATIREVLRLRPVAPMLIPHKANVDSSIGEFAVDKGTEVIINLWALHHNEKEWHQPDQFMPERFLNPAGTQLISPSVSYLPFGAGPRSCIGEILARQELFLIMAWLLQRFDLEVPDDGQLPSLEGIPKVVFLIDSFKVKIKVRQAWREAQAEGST

Aromatase = target: T4, Aromatase (Homo sapiens, UniProt P11511); assay: Binding affinity to recombinant human CYP19A1 by spectrophotometric titration method; assay type: ADME; details: recombinant enzyme
T4 sequence (P11511 whole entry): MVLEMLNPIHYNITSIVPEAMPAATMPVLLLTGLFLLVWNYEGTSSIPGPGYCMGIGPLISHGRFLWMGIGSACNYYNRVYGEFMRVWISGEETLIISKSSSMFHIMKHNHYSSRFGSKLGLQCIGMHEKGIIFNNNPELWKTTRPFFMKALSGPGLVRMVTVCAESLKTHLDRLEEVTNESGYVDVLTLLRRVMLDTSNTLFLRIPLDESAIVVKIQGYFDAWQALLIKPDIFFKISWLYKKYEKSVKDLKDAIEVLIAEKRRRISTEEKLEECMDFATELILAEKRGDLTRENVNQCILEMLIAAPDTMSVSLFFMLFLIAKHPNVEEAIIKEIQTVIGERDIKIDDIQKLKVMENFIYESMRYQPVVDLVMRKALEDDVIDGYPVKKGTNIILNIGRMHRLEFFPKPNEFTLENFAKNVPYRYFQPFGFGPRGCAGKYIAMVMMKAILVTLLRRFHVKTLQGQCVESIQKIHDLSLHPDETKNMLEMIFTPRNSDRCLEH

Steroid 21-hydroxylase = target: T5, Steroid 21-hydroxylase (Homo sapiens, UniProt P08686); assay: Binding affinity to recombinant human CYP21A2 by spectrophotometric titration method; assay type: ADME; details: recombinant enzyme
T5 sequence (P08686 whole entry): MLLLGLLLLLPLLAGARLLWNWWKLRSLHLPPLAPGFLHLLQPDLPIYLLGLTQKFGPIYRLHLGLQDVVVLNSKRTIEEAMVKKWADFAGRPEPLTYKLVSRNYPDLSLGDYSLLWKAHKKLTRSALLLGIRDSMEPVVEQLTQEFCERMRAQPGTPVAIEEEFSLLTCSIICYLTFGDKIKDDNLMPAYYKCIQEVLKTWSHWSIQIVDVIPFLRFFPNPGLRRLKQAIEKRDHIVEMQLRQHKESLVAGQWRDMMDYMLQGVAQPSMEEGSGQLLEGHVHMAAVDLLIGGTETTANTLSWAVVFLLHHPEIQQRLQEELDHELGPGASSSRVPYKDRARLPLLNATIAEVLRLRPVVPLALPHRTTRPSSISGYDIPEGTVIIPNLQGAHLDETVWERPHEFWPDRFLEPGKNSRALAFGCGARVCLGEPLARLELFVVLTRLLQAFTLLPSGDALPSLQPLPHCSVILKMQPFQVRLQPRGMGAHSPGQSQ

MCF7 [17] = assay: Antiproliferative activity against estrogen-responsive human MCF7 cells assessed as inhibition of cell growth by MTT assay; assay type: functional, cell-based
MCF7 [18] = assay: Downregulation of PCNA protein level in human MCF7 cells at 15 uM measured after 48 hrs by immunoblot analysis; assay type: functional, cell-based
[19] = Cytotoxicity against human THP-1 cells assessed as inhibition of cell growth incubated for 72 hrs by MTT assay; assay type: toxicity, cell-based
[20] = Selectivity index, ratio of IC50 for human THP-1 cells to IC50 for human MCF7 cells
MCF7 [21] = assay: Synergistic antiproliferative activity against human MCF7 cells assessed as reduction in cell viability at 2.4 uM incubated for 72 hrs in presence of AKT inhibitor IV 6-(2-benzothiazolyl)-1-ethyl-2-[2-(methylphenylamino)ethenyl]-3-phenyl-1H-benzimidazolium mono iodide by MTT assay; assay type: functional, cell-based
MDA-MB-231 [22] = assay: Antiproliferative activity against estrogen-independent human MDA-MB-231 cells assessed as inhibition of cell growth by MTT assay; assay type: functional, cell-based

| Compound | IC50 (MCF7 [1]) | IC50 (MDA-MB-231 [2]) | Activity (MCF7 [5]) | Activity (MCF7 [6]) | Activity (MCF7 [7]) | Activity (MCF7 [8]) | Activity (MCF7 [9]) | Activity (MCF7 [10]) | Activity (MCF7 [11]) | Activity (MCF7 [12]) | Activity (MCF7 [13]) | Activity (Cytochrome P450 7A1 [14]) | Activity (Cytochrome P450 7B1 [15]) | Activity [16] | Activity (Aromatase) | Activity (Steroid 21-hydroxylase) | other results |
| --- | --- | --- | --- | --- | --- | --- | --- | --- | --- | --- | --- | --- | --- | --- | --- | --- | --- |
| CC(C)(C)NP(=O)(NC(C)(C)C)c1nncc2c1CC1CC[C@H]3[C@@H]4CC[C@H](O)[C@@]4(C)CC[C@@H]3[C@@]1(C)C2 (some centres not stated) | 22.1 µM | > 25 µM |  |  |  |  |  |  |  |  |  |  |  |  |  |  | Kd (Cytochrome P450 7A1 [3]): 2.1 µM; Kd (Cytochrome P450 7B1 [4]): 1.7 µM |
| C[C@]12CCC(=O)C=C1CC[C@@H]1[C@@H]2CC[C@]2(C)c3c(cnnc3P(=O)(c3ccccc3)c3ccccc3)C[C@@H]12 | 6.5 µM | 18.1 µM | Active | inactive | Dose-Dependent Effect | inactive | inactive | Active | Active | Active | Dose-Dependent Effect | Not Active | Not Active | Not Active | Not Active | Not Active |  |
| CC(=O)O[C@H]1CC[C@@]2(C)C(=CC[C@@H]3[C@@H]2CC[C@]2(C)c4c(cnnc4C(=O)Nc4ccc(C(F)(F)F)cc4)C[C@@H]32)C1 |  |  |  |  |  |  |  |  |  |  |  |  |  |  |  |  | IC50 (MCF7 [17]): 4.9 µM |
| C[C@]12CCC(=O)C=C1CC[C@@H]1[C@@H]2CC[C@]2(C)c3c(cnnc3P(=O)(Nc3ccccc3)Nc3ccccc3)C[C@@H]12 | 5.9 µM | 22 µM | Active | Active | Dose-Dependent Effect | inactive | inactive | Active | Active | Active | Dose-Dependent Effect | Not Active | Not Active | Not Active | Not Active | Not Active | Activity (MCF7 [18]): Active; IC50 at 72 h [19]: > 50 µM; Ratio IC50 [20]: >8.5; Activity (MCF7 [21]): Active |
| COc1ccc(NC(=O)c2nncc3c2[C@@]2(C)CC[C@H]4[C@@H](CC=C5C[C@@H](OC(C)=O)CC[C@@]54C)[C@@H]2C3)cc1 |  |  |  |  |  |  |  |  |  |  |  |  |  |  |  |  | IC50 (MDA-MB-231 [22]): 12.5 µM |

From ChEMBL document CHEMBL5550194, “Design and synthesis of phosphoryl-substituted steroidal pyridazines (Pho-STPYRs) as potent estrogen receptor alpha inhibitors: targeted treatment of hormone-dependent breast cancer cells” (RSC Med Chem, 2024)
